# Results as given in US20250170132A1, “SALTS AND POLYMORPHIC FORMS OF MENIN INHIBITORS AND PHARMACEUTICAL COMPOSITIONS THEREOF” (Syndax Pharmaceuticals, Inc., priority 2023, published 2025).
# Where two headings read alike, the source gives them in different places.
# Assays:
# [1] = Excipient compatibility study with Compound A monocitrate monohydrate; type: physicochemical
# Description: The list of excipients for this study was restricted to those already being used in the tablet formulation provided in Example 7. OpaDry Orange was further added.
# Binary mixtures of Compound A monocitrate monohydrate and each excipient, were placed in closed 20 mL borosilicate glass vials (Tables 45-47). The vials were stored at 25° C./60% RH, 30° C./65% RH, and 40° C./75% RH over 8 weeks and later analyzed using methods for Appearance, Compound A Assay, Related Substances, XRPD, and Differential Scanning calorimetry (DSC).
# [2] = Aqueous solubility of Compound A salts; type: physicochemical; settings: across the physiological pH range
# Description: Solubility of Compound A citrate was determined in 3 different types of matrices: unbuffered water, citrate-buffered solutions from pH 3 to 6, and formulations consisting of citrate, advantame, methylparaben sodium, potassium sorbate, and sodium chloride at pH ranging from 3 to 6. Solubility in unbuffered water at ambient temperature was 38.5 mg/mL.
# The target pH was reassessed when the F3 formulation was developed. Compound A citrate solubility studies were performed initially in simple buffered solutions to assess solubility trends as a function of pH. […] The target concentration of Compound A was therefore changed to 40 mg/mL as a compromise between drug substance and preservatives dissolution rate and stability.
# [3] = biological target: T1, CYP3A4 (Homo sapiens, UniProt P08684); experiment: Drug interaction studies (clinical studies); type: in vivo; settings: for AUC increase / Cmax increase: multiple doses
# T1 construct: from tissue
# Excerpt: Strong CYP3A4 Inhibitors: Compound A AUC and Cmax is increased by 2-fold following concomitant use of multiple doses of Compound A with certain azole antifungals that are strong CYP3A4 inhibitors (i.e., posaconazole, itraconazole, and voriconazole).
# [4] = Pharmacokinetics in patients with relapsed or refractory acute leukemia; type: in vivo, human; settings: for Tmax: read-out: Tmax Median; for AUC(0-t): read-out: AUC0-12 h
# Excerpt: The pharmacokinetics of Compound A were characterized in patients with relapsed or refractory acute leukemia following single and multiple oral administration of Compound A with or without strong CYP3A4 inhibitors. Steady-state pharmacokinetic parameters are presented as geometric mean [geometric coefficient of variation (% CV)] unless otherwise specified.
# [5] = test system: cells harboring MLLr fusions; experiment: Activity in cells harboring MLLr fusions; type: cell-based
# Excerpt: (§1) Menin inhibitor (e.g., Compound A or a pharmaceutically acceptable salt thereof) disrupts the interaction between menin and the MLL1 fusion proteins which is required for leukemogenic activity, thus impairing expression of critical oncogenes, causing growth arrest and the inhibition of cellular proliferation. Small molecule inhibitors of the menin-MLL interaction have been reported.
# [6] = biological target: T2, menin (Homo sapiens, UniProt O00255); experiment: Binding to the MLL1 binding pocket on menin
# T2 sequence (O00255 1-610): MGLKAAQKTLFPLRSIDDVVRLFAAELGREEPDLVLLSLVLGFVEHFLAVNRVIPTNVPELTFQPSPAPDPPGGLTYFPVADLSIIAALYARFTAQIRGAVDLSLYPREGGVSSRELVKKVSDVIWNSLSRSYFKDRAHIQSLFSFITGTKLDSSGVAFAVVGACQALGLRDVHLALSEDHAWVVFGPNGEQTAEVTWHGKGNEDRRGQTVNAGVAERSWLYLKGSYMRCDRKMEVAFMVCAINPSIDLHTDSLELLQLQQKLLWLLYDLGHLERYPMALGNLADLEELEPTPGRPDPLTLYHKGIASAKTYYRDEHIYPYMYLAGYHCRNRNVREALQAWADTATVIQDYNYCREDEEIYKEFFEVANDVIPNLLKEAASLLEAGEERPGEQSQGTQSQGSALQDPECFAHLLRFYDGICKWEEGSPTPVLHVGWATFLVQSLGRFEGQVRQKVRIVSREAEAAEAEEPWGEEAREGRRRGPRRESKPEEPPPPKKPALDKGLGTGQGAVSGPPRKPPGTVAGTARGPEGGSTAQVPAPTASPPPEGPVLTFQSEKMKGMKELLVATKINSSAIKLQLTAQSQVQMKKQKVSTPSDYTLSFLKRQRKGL
# Excerpt: as §1
# [7] = test system: NPM1c cells; settings: cited from earlier work
# [8] = test system: NPM1c mutant AML patient-derived xenograft models; settings: orally active menin inhibitor; cited from earlier work
# [9] = Polymorph screening of Compound A citrate salt, form conversion (XRPD, DSC/TGA, DVS); type: physicochemical; settings: drying of wet cake (Form B); presence of water (Form C)
# [10] = Form C characterization and relative stability of the forms; type: physicochemical; settings: ambient conditions
# Description: Moreover, HNMR studies validated a 1:1 stoichiometry between the freebase and acid.
# [11] = Single crystal structure, solvate exchange under ambient conditions; type: physicochemical; settings: after exposure to ambient conditions, analyzed at 273 K
# Description: Plate-like crystals (FIG. 9) were grown by recrystallization from methanol of Compound A monocitrate monomethanolate by evaporation (prepared from methanol/water 90:10 v/v).
# [12] = Slurry and solvent evaporation polymorph experiments of Compound A citrate salt (Table 9); type: physicochemical; settings: upon drying
# Description: Based on the approximate solubility data of Compound A citrate salt, 18 polymorph experiments were started at RT with stirring (Table 9). Wet cakes from the slurry experiments were analyzed after 5 days of stirring. Wet cake XRPD patterns were checked and materials showing no pattern change were heated from RT to 50° C.
# Procedure • 1) Slurry at RT: ˜35 mg citrate salt was slurried in different solvents in 4 mL vials using a magnetic stirrer at RT. The solids in slurry were characterized by XRPD after 3-5 days. • 2) Slurry at 50° C.: Slurries with no change in wet cake XRPD pattern when compared to starting material were heated from RT to 50° C. Samples were analyzed after 2-3 days of stirring.
# Wet cake samples were isolated and kept at 25° C. for 2 h for drying. After drying, samples were analyzed by XRPD.
# [13] = with cobicistat (strong CYP3A4 inhibitor)
# [14] = with strong CYP3A4 inhibitor azole antifungals (posaconazole, itraconazole, voriconazole)
# [15] = 2 pediatric patients, 160 mg/m^2 without strong CYP3A4 inhibitors
# [16] = human, plasma, oral, 163 mg twice daily with strong CYP3A4 inhibitors, steady-state, geometric mean
# [17] = human, plasma, oral, 276 mg twice daily without strong CYP3A4 inhibitors, steady-state, geometric mean
# [18] = low fat meal, approximately 400-500 calories, 25% of calories from fat
# [19] = single dose of radiolabeled Compound A 276 mg, adult patients
# T1 sequence (P08684 whole entry): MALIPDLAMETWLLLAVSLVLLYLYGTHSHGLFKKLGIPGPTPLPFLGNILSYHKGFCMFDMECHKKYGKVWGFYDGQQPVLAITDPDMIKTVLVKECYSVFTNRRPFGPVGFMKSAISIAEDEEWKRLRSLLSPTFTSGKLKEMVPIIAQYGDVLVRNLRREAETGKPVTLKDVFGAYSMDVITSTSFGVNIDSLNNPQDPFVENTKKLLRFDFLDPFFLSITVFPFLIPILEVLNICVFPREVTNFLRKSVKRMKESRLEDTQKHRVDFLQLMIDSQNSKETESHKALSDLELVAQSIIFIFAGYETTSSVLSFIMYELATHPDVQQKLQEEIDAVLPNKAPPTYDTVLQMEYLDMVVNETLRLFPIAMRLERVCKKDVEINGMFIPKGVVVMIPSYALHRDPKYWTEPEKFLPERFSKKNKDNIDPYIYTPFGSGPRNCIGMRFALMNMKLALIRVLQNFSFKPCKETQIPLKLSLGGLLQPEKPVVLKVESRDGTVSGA
compound,measurement,setting,value
"CCN(C(=O)c1cc(F)ccc1Oc1cncnc1N1CC2(CCN(C[C@H]3CC[C@H](NS(=O)(=O)CC)CC3)CC2)C1)C(C)C [Compound A, trans N-ethyl-2-((4-(7-((4-(ethylsulfonamido)cyclohexyl)methyl)-2,7-diazaspiro[3.5]nonan-2-yl)pyrimidin-5-yl)oxy)-5-fluoro-N-isopropylbenzamide]",Assay (%) Results,"[1]; 8 week, 25° C./60% RH closed",100.3%
same,Assay (%) Results,"[1]; 8 week, 30° C./65% RH closed",101.4%
same,Assay (%) Results,"[1]; 8 week, 40° C./75% RH closed",100.0%
same,Assay (%) Results,"[1]; Initial (t = 0), closed glass vials",98.8%
same,solubility,[2],high solubility
same,AUC increase,[3]; [13],2.5 fold
same,Cmax increase,[3]; [13],2.5 fold
same,Differences in pharmacokinetics,[3]; with fluconazole (moderate CYP3A4 inhibitor),No clinically significant differences
same,Differences in pharmacokinetics,[3]; with isavuconazole (moderate CYP3A4 inhibitor),No clinically significant differences
same,AUC increase,[3]; [14],2 fold
same,Cmax increase,[3]; [14],2 fold
same,Apparent Clearance,"[4]; 163 mg twice daily with strong CYP3A4 inhibitors, steady-state, geometric mean",7 L/h
same,Apparent Clearance,"[4]; 276 mg twice daily without strong CYP3A4 inhibitors, steady-state, geometric mean",27 L/h
same,"AUC0-tau, individual patients",[4]; [15],16300 ng·h/mL
same,"steady-state Cmax, individual patients",[4]; [15],4790 ng/mL
same,Dose Proportionality,[4]; dosage range of 113 mg to 339 mg,Dose proportional increases in Cmax and AUC0-12 h
same,Effect of body weight and BSA on pharmacokinetics,[4]; higher exposures with lower body weight and BSA,significant effect
same,Metabolism: Primary Pathway,"[4]; human, in vivo",CYP3A4
same,fraction unbound,"[4]; human, in vivo, independent of concentration, read-out: Protein Binding (converted)",0.1
same,AUC,"[4]; human, plasma, oral, 95 mg/m2, pediatric patients, 95 mg/m^2 with strong CYP3A4 inhibitors, read-out: steady-state AUC0-tau, geometric mean (geometric CV %)",14600 ng·h/mL
same,Cmax,"[4]; human, plasma, oral, 95 mg/m2, pediatric patients, 95 mg/m^2 with strong CYP3A4 inhibitors, read-out: steady-state Cmax, geometric mean (geometric CV %)",3140 ng/mL
same,AUC,"[4]; human, plasma, oral, 160 mg/m2, 2 pediatric patients, 160 mg/m^2 without strong CYP3A4 inhibitors, read-out: AUC0-tau, individual patients",25600 ng·h/mL
same,Cmax,"[4]; human, plasma, oral, 160 mg/m2, 2 pediatric patients, 160 mg/m^2 without strong CYP3A4 inhibitors, read-out: steady-state Cmax, individual patients",4950 ng/mL
same,Cmax,"[4]; human, plasma, oral, 163 mg, 163 mg twice daily with strong CYP3A4 inhibitors, steady-state, geometric mean, patients, read-out: Cmax",3220 ng/mL
same,Cmax,"[4]; human, plasma, oral, 276 mg, 276 mg twice daily without strong CYP3A4 inhibitors, steady-state, geometric mean, patients, read-out: Cmax",2050 ng/mL
same,Tmax,"[4]; human, plasma, oral, 163 mg twice daily with strong CYP3A4 inhibitors",2 h
same,half-life,[4]; [16],450 min
same,AUC(0-t),[4]; [16],22600 ng·h/mL
same,Tmax,"[4]; human, plasma, oral, 276 mg twice daily without strong CYP3A4 inhibitors",1 h
same,half-life,[4]; [17],216 min
same,AUC(0-t),[4]; [17],10200 ng·h/mL
same,Vd,"[4]; human, plasma, oral, steady-state, geometric mean (% CV), read-out: Apparent Volume of Distribution",78 L
same,AUC decrease with low fat meal,[4]; [18],12%
same,Cmax decrease with low fat meal,[4]; [18],27%
same,Excretion in Feces,[4]; [19],~49%
same,"Excretion in Feces, unchanged",[4]; [19],7%
same,Excretion in Urine,[4]; [19],~27%
same,"Excretion in Urine, unchanged",[4]; [19],7%
same,Accumulation,[4]; steady-state,2-fold
same,Time to Steady-State,"[4]; twice daily oral dosing, patients",2 to 3 days
same,activity in cells harboring MLLr fusions,[5],displays activity across a range of cells harboring MLLr fusions
same,binding affinity to the MLL1 binding pocket on menin,[6],high affinity
Cc1c(CN2CCC(Nc3ncnc4sc(CC(F)(F)F)cc34)CC2)ccc2c1cc(C#N)n2Cc1cn[nH]c1 [MI-503],effect on HOXA/MEIS1 transcription program in NPM1c cells,[7],"suppress the HOXA/MEIS1 transcription program in NPM1c cells, leading to growth arrest, terminal differentiation and cell death"
CNc1nc(NC2CCN(Cc3ccc4c(cc(C#N)n4C[C@H](C)N4CCN(S(C)(=O)=O)CC4)c3C)CC2)c2cc(CC(F)(F)F)sc2n1 [KO-539],anti-leukemic activity,[8],robust anti-leukemic activity
CCN(C(=O)c1cc(F)ccc1Oc1cncnc1N1CC2(CCN(C[C@H]3CC[C@H](NS(=O)(=O)CC)CC3)CC2)C1)C(C)C.CO.O=C(O)CC(O)(CC(=O)O)C(=O)O [Form B],stability of polymorphic form / conversion,[9],unstable form and converts to Form A upon drying
same,Form conversion,[10],transitions to Form A
same,Solvate exchange of single crystal,[11],transformed into a monohydrate
same,Form conversion,[12],converts to Form A upon drying
